{"source": "patent EP4085972A1", "about": "“AMP-ACTIVATED PROTEIN KINASE INHIBITORS FOR USE IN THE TREATMENT OF PTSD IN A SUBJECT” (Consejo Superior de Investigaciones Científicas (CSIC), priority 2021, dated 2022)", "key": {"[1]": {"system": "orexin neurons", "experiment": "Patch-clamp recordings in acute hypothalamic slices (DREADD check)", "format": "cell-based", "conditions": "hypothalamic slices of Orexin-Cre mice transduced with pAAV-hSyn-DIO-hM4D(Gi)-mCherry; CNO 2µM in perfusate", "protocol": "Viral constructs. For chemogenetic experiments using DREADD, a viral construct (pAAV-hSyn-DIO-hM4D(Gi)-mCherry (AAV5; Addgene # 44362); 8.6 x 1012 viral infective units/ml) was locally injected bilaterally to inactivate orexin-cre neurons in Orexin-Cre (littermates) and transgenic mice (Firoc). As control virus, pAAV-hSyn-DIO-mCherry (AAV5; Addgene # 50459) was used. Both viral constructions were obtained from Addgene. Clozapine N-Oxide (CNO, 2mg/kg dissolved in saline 0.9%) was administered ip and 40 min later behavior was assessed, CNO efficacy in orexin neurons was confirmed in acute slices obtained from injected mice. Slices for electrophysiological recordings were prepared from 2-months old Orexin-Cre mice, 4 weeks after injection of the DREADD-mCherry virus into the lateral hypothalamus. […] Recordings were obtained at 30-32 °C from orexin+ neurons identified using fluorescence microscopy (mCherry+) in oxygenated artificial cerebrospinal fluid containing the following: 126 mM NaCl, 26 mM NaHCO3, 2.5 mM KCI, 1.25 mM NaH2PO4, 2 mM MgSO4, 2 mM CaCl2 and 10 mM glucose (pH 7.4). […] Data were analyzed using pClamp (Axon Instruments)."}, "[2]": {"system": "orexin neurons", "experiment": "c-fos immunostaining in orexin neurons after fear conditioning", "format": "in vivo", "conditions": "Firoc DREADD mice treated with CNO at week 1", "protocol": "Immunocytochemistry. Mice were perfused transcardially under deep anesthesia (sodium pentobarbital, 50 mg/kg, i.p.) with 100 ml of saline buffer 0.9% followed by 100 ml of 4% paraformaldehyde (PFA) in 0.1N, pH 7.4 phosphate buffer (PB), 90 min after the cued-fear conditioning test, the recall context, or under basal conditions. This time point was selected as optimal to see c-Fos staining. For experiments with systemic administration of IGF-I, animals were sacrificed 2 hours after injection. Brains were removed, post-fixed overnight at 4°C in the same fixative, and cut at 50 µm thick sections on a vibratome (Leica VT 1000S). Sections were kept at 4°C, immersed in 0.1N PB with 0.02% sodium azide, until processing. Serial coronal free-floating sections were rinsed in 0.1N PB for 10 min, and a blocking solution containing 10% normal donkey serum, and 0.4% Triton X-100 in 0.1N PB (PB-T) was added and maintained at room temperature for 2 h. Thereafter, sections were incubated overnight at 4°C in the same solution with the corresponding primary antibodies (see Antibody Table). […] Images were taken with confocal microscopy (SP5, Leica Microsystems, Germany) and analyzed with Imaris software (Bitplane).\nImage analysis. […] Last, spots were created for Vgat and Vglut2 with an estimated XY size of 0.5 µm, and the number of Vgat and Vglut2 spots in orexin+ cells was counted."}, "[3]": {"system": "fear-conditioned mice", "experiment": "Cued-fear conditioning (freezing behavior, context recall)", "format": "in vivo", "protocol": "Cued-fear conditioning. Experiments were performed at the same time of the day during the light phase with 3-4 months-old male and female mice (n=14-19 mice/genotype, balanced sex). The training and test sessions were video recorded. Mice were placed in a shuttle box chamber (AccuScan Instruments) for 120 sec before exposing them to a neutral conditioned stimulus (CS+) -a tone of 80 dB for 30s, presented together with an aversive unconditioned stimulus (US) -an electrical footshock of 0.3 mA/2 sec, except in the case of the PTSD-eliciting protocol, where 2.5 mA shocks were used. Training consisted of 5 consecutive trials with 90 sec intertrials (CS-). Animals remained in the chamber for 5 min more before returning them to their home cages. Twenty-four hours later, fear conditioning was tested placing the animals in a different context using the same protocol but without the unconditioned stimulus (US). […] Freezing behavior was defined by the absence of movement except of breathing and heart beating. Context-dependent extinction was tested 1 and 5 weeks later (delayed extinction). Mice were placed in the same context for 5 min to measure their freezing behavior. The latter unveils PTSD-like behaviour when it is abnormally retained.\nDrug administration. Human recombinant IGF-I (Pre-Protech, USA) or vehicle (saline) were administered intracerebroventricularly (icv, 50 µg/kg/day) using Alzet osmotic minipumps for 7 days (Model 1007D), and the brain infusion kit 3 (Alzet, USA) with the following stereotaxic coordinates: AP= -0.5; ML= 1.1; DV= -2.5. Alzet pumps were implanted subcutaneously between the scapulae. In other experiments IGF-I was given intraperitoneally (ip, 1 µg/kg) to wild type mice submitted to the 2.5 mA fear-learning protocol 6 hours after fear conditioning. For hdM4Di (DREADD) experiments, clozapine-N-oxide (CNO, Tocris) was administered at 2mg/kg dissolved in saline 0.9%, and injected intraperitoneally 40 min before test sessions, and 24h and 1week after fear conditioning. 6-[4-(2-Piperidin-1-yl-ethoxy)-phenyl)]-3-pyridin-4-yl-pyrrazolo [1,5-a]-pyrimidine dihydrochloride (Compound C dihydrochloride, AMPK inhibitor; Cat. # CD0339, Chemdea NJ, USA) was administered intraperitoneally (ip, 10 mg/kg) 6 hours after fear conditioning to PTSD-like wild type mice."}}}
{"molecule": "C[N+]1([O-])CCN(C2=Nc3cc(Cl)ccc3Nc3ccccc32)CC1", "note": "[CNO, clozapine-N-oxide]", "values": [{"measurement": "inhibition of orexin neurons (action potential frequency, input resistance)", "setting": "[1]", "value": "inhibition of orexin neurons was confirmed"}, {"measurement": "c-fos expression in orexin neurons 5 weeks after fear conditioning", "setting": "[2]", "value": "normal"}, {"measurement": "freezing behavior in the fifth week after fear learning", "setting": "[3]; Firoc DREADD mice treated with CNO 1 week after fear learning", "value": "normal freezing behavior"}, {"measurement": "context-dependent fear responses (context recall) 1 week later", "setting": "[3]; Firoc mice injected with hM4Di virus, after CNO administration", "value": "normalized fear responses"}, {"measurement": "fear responses after fear conditioning", "setting": "[3]; Firoc mice with hM4Di DREADD virus in lateral hypothalamus, CNO 2mg/kg ip 40 min before testing", "value": "normalized their fear responses"}, {"measurement": "increased freezing after 2.5 mA shock protocol", "setting": "[3]; orexin-Cre mice injected with hM4Di virus, CNO administration", "value": "ameliorated"}]}
{"molecule": "c1cc(-c2cnn3cc(-c4ccc(OCCN5CCCCC5)cc4)cnc23)ccn1", "note": "[Compound C]", "values": [{"measurement": "fear behavior after the PTSD protocol", "setting": "[3]; wild type mice, 2.5 mA shocks, Compound C ip, 10 mg/kg, 6 hours after fear conditioning", "value": "normalized fear behavior"}]}
